Measured values taken from PubChem BioAssay AID504609 (Sanford-Burnham Center for Chemical Genomics, 2011).
Activity calls are given as the source filed them.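 The calls were made as follows: active = IC50 under a set limit, which marks the compound as nonspecific in this counterscreen; inactive = the rest.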

These molecules were tested against SaOS-2 dox-inducible full-length luciferase, luminescence counterscreen (assay: luminescence decrease from intact luciferase reporter – cell-based, SaOS-2, dox-inducible, counter-screen for Mdm2/MdmX interaction inhibitor project, dose response (AID 504609)).

Question: With `CCN(CC)S(=O)(=O)c1ccc(NC(=O)c2cccnc2Cl)c(NC(=O)c2cccnc2Cl)c1` as the molecule, how does the IC50 read?
Answer: Its IC50 is 5.16 µM.

Question: For `O=c1oc2ccccc2cc1-c1cn(-c2ccccc2)c(=S)[nH]1`, which IC50 is on record?
Answer: Its IC50 is 2.38 µM.

Question: For `O=C(/C=C/c1c(F)cccc1Cl)c1ccc(O)cc1`, which IC50 is on record?
Answer: Its IC50 is 6.23 µM.

Question: `O=[N+]([O-])c1ccccc1S(=O)(=O)Nc1cccc2cccnc12` was tested. Which IC50 did it give?
Answer: Its IC50 is 2.67 µM.

Question: With `CCOC(=O)c1ccc(Nc2nc(N)c3cc(OC)c(OC)cc3n2)cc1` as the molecule, how does the IC50 read?
Answer: Its IC50 is > 79 µM (inactive).

Question: With `COc1cc(-c2nc(-c3ccc(NC(=O)c4ccc5c(c4)OCO5)cc3)no2)cc(OC)c1OC` as the molecule, how does the IC50 read?
Answer: The IC50 was 3.87 µM.

Question: Which IC50 does the source give for `Cn1nc([N+](=O)[O-])nc1Sc1nnc(-c2ccccc2)o1` here?
Answer: Its IC50 is 7.44 µM.

Question: How did the IC50 turn out when `O=C(CN1CCCc2ccccc21)N/N=C/c1c(O)ccc2ccccc12` was run?
Answer: The IC50 was 1.57 µM.

Question: For `Cc1nc(NC2=NCN(CCCN3CCOCC3)CN2)nc2c(C)cccc12`, which IC50 is on record?
Answer: Its IC50 is 13.8 µM.

Question: How did the IC50 turn out when `COc1ccc(-c2cc3c(=O)n(CC(=O)NCCCN4CCC(N5CCCCC5)CC4)nc(C)n3n2)cc1` was run?
Answer: The IC50 was 15.5 µM.

Question: How did the IC50 turn out when `COc1ccc2c(c1)C1(Nc3ccccc3-c3nc4ccccc4n31)C(=O)N2C` (stereo not given) was run?
Answer: The IC50 was 1.75 µM.

Question: For `CC(=O)c1ccc(-c2ccc(C(=O)Nc3nc(-c4ccccn4)cs3)o2)cc1`, which IC50 is on record?
Answer: Its IC50 is 5.78 µM.

Question: `COCCn1c(C)cc(C2=NNC(=Nc3ccccc3F)SC2)c1C` was tested. Which IC50 did it give?
Answer: The IC50 was 0.137 µM.

Question: How did the IC50 turn out when `CCOc1cc(N2CCOCC2)c(OCC)cc1NC(=O)COc1cccc2cccnc12` was run?
Answer: Its IC50 is 12.5 µM.

Question: With `CC1(C)C(=O)Nc2ccccc2N1C(=O)Cn1ncc(Cl)c(Cl)c1=O` as the molecule, how does the IC50 read?
Answer: Its IC50 is 8.88 µM.

Question: How did the IC50 turn out when `Cc1cccn2c(=O)c3cc(C(=O)NCCc4ccccc4)c(=N)n(Cc4ccco4)c3nc12` was run?
Answer: The IC50 was 3.58 µM.

Question: Which IC50 does the source give for `CCOC(=O)/C=C/C(=O)OCC(=O)NC(c1ccccc1)c1ccccc1` here?
Answer: The IC50 was 2.41 µM.

Question: With `C/C(=N\Nc1cc(C)nc(-c2ccccc2O)n1)c1ccccc1O` as the molecule, how does the IC50 read?
Answer: Its IC50 is 11.5 µM.

Question: With `CC(C)c1cccc(O)c(=O)c1` as the molecule, how does the IC50 read?
Answer: The IC50 was 2.27 µM.

Question: How did the IC50 turn out when `CCN1C/C(=C/c2ccc(OC)c(O)c2)C(=O)/C(=C/c2ccc(OC)c(O)c2)C1` was run?
Answer: The IC50 was 7.64 µM.
